These results are taken from PubChem BioAssay (NCI).

“And” between values parts separate entries of the source, which are not always exact repeats. Identical values can stand only once.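 Growth conditions: 96-well plates. Treatment: test compound, 48 hours, 5 concentrations. Analysis: linear interpolation between bracketing concentrations; unreached endpoints set to highest concentration. GI50 is the concentration that inhibits growth by half. TGI denotes the concentration required for complete inhibition of growth.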

Holding throughout (experiment): DTP human tumour cell line panel, 48 h
Experiment [1] concerns LXFL 529 NSCLC.
The test system of experiment [2] is KM20L2 colon.
Experiment [3] has as its system SNB-75 CNS.
Experiment [4] relates to UACC-257 melanoma.
Experiment [5] has as its system RXF 393 renal.
In experiment [6] the test system is HCT-116 colon.
In experiment [7] the test system is HCT-15 colon.
The test system of experiment [8] is NCI-H522 lung.
Experiment [9] relates to MDA-MB-435.
The subject of experiment [10] is MDA-MB-231 breast.

Broadly, the GI50 is the concentration giving 50% growth inhibition. The term TGI denotes the concentration giving total growth inhibition. A lower TGI goes with more potent growth arrest.

As to `CCCOC(=O)C1C(c2ccc(OC)cc2)NC(c2ccc(OC)cc2)C(C(=O)OCCC)S1(=O)=O` (stereo unspecified), the GI50 in [1] was > 100000 nM; in experiment [2] it was > 100000 nM; in experiment [3] it was > 100000 nM; in [4], > 100000 nM; in [5] it was > 100000 nM; in experiment [6], > 100 µM. The results for the GI50 in experiment [7] and in experiment [8] were > 100 µM and > 100000 nM, respectively. The TGI in experiment [1], in experiment [2], in experiment [3], in experiment [4], in [5] and in experiment [6] was > 100 µM throughout. The TGI in experiment [7] and in experiment [8] was > 100 µM each time.
Take `COC(=O)C(C(=O)C(=O)Nc1nc2ccc(OC)cc2s1)c1cnc2ccccc2n1` (stereo unspecified): the total growth inhibition concentration (TGI) in experiment [1], in experiment [2], in experiment [3], in [4], in [5] and in experiment [6] was > 100 µM throughout. For the same molecule, the concentration for total growth inhibition (TGI) in experiment [7] and in experiment [8] was > 100 µM in each case.
Turning to `CC[P+](C)(C)CC`, the TGI in [1], in experiment [2], in experiment [3], in experiment [4], in experiment [5] and in experiment [6] was > 100 µM in each case. For the same molecule, the TGI in experiment [7] is > 100 µM.
For `Oc1ccc(Br)cc1C=Nc1ccc(Oc2ccc(N=Cc3cc(Br)ccc3O)cc2)cc1`, the concentration for total growth inhibition (TGI) in experiment [1], in [2], in experiment [3], in experiment [4], in experiment [5] and in [6] was > 19.6 µM in each case. For the same molecule, the TGI in [8] was > 19.6 µM.
`COc1ccc(C2=NC(CO)[C@H](c3ccccc3)O2)cc1OC` (stereo partly specified): the TGI in [1], in experiment [2], in experiment [3], in experiment [4], in [6] and in experiment [7] was > 100 µM in each case. In experiment [8], the total growth inhibition concentration (TGI) is > 100 µM.
For `CC[C@@]1(O)C(=O)OCc2c1cc1n(c2=O)Cc2cc3c(N)c(OC)ccc3nc2-1`, the GI50 was 953 nM in [1]; 125 nM in experiment [2]; 33.9 nM in experiment [3]; 219 nM in experiment [4]; 70.8 nM in experiment [5]; 0.283 µM in experiment [7]. Moreover, in experiment [8], the GI50 was 43.4 nM. Further, the total growth inhibition concentration (TGI) is > 25.6 µM in experiment [1]; 1.8 µM in experiment [2]; 0.265 µM in [3]; 2.15 µM in experiment [4]; 0.426 µM in experiment [5]; 3.52 µM in experiment [7]. The molecule further registered a TGI in [8] of 1.31 µM.
As to `COc1ccc(C)cc1-c1ccc(-c2cc(C)ccc2OC)o1`, the TGI in experiment [1], in [2], in [3], in experiment [4], in experiment [6] and in experiment [7] was > 100 µM in each case. In addition, the TGI in experiment [8] was > 100 µM.
`O=C1C=C(c2ccccc2)NC1(c1ccccc1)c1cc(-c2ccccc2)[nH]c1-c1ccccc1` (stereo unspecified): the TGI was > 100 µM in [1]; > 100 µM in experiment [2]; > 100 µM in [3]; > 100 µM in experiment [4]; 0.586 µM in experiment [5]; > 100 µM in [6]. The concentration for total growth inhibition (TGI) in experiment [7] is > 100 µM.
`C=CCN=C1NC(=O)C(CC(=O)Nc2ccc([N+](=O)[O-])cc2[N+](=O)[O-])S1` (stereo unspecified): the TGI in [1], in [2], in [3], in experiment [4], in experiment [5] and in experiment [6] was > 100 µM throughout. In addition, the TGI in experiment [7] and in experiment [8] was > 100 µM throughout.
Take `CC(C)CC1CC2C(=O)N(c3ccccc3)C(=O)C2c2[nH]c3ccccc3c21` (stereo unspecified): the total growth inhibition concentration (TGI) in experiment [1] was > 100 µM; in experiment [2], > 100 µM; in experiment [3], 30.6 µM; in experiment [4], > 100 µM; in experiment [5], 44.9 µM; in experiment [6], 34 µM. Further, the values for the TGI in experiment [7] and in [8] were > 31.6 µM and > 100 µM, respectively.
`NC(=O)c1c(-c2ccccc2)c(-c2ccccc2)cc2c(=O)c3ccccc3[nH]c12`: the TGI was 32.7 µM in experiment [1]; 72.9 µM in [2]; 41.7 µM in experiment [3]; > 100 µM in [4]; 35.9 µM in experiment [6]; > 100 µM in experiment [7]. Besides, the total growth inhibition concentration (TGI) in experiment [8] was found to be 20 µM.
Regarding `CC12CC(Br)(Br)C(=O)C3C1CCCC32`, the concentration for total growth inhibition (TGI) is 6.83 µM in experiment [1]; 8.78 µM in experiment [9]; 37.9 µM in [2]; 22.9 µM in experiment [3]; 22.2 µM in experiment [4]; 7.62 µM in experiment [10]. Further, the TGI in [5] was found to be 6.04 µM; in [6], 5.12 µM; in experiment [7], 15.7 µM; in experiment [8] it was 7.84 µM.
For `COc1ccc(-c2cc(-c3ccco3)c(C#N)c(=O)n2C2OC(COC(C)=O)C(OC(C)=O)C(OC(C)=O)C2OC(C)=O)cc1` (stereo unspecified), the TGI in [1] is 59.6 µM; in experiment [2], > 100 µM; in [3] it was > 100 µM; in [4] it was > 100 µM; in experiment [5] it was > 100 µM and 66.2 µM; in experiment [6] it was > 100 µM and 21.1 µM. In addition, the TGI in experiment [7] is > 100 µM; in experiment [8], > 100 µM and 60.4 µM. Moreover, the GI50 is > 100000 nM and 21800 nM in experiment [5]; > 100 µM and 39 µM in experiment [7]; 42800 nM and 11000 nM in [8].
Turning to `NNC(=O)C(=O)N/N=C1\CCCC1C(=O)CCC(=O)Nc1cccc(Cl)c1` (stereo unspecified), the total growth inhibition concentration (TGI) in experiment [1], in experiment [2], in [3], in [4], in experiment [5] and in [6] was > 100 µM throughout.
With `COC(=O)N1C=CC2=C(C)C3Nc4ccccc4C3C(C)=C2C1` (stereo unspecified), the TGI in experiment [1] is 9.94 µM; in experiment [2], > 100 µM; in experiment [3], 9.54 µM; in experiment [4] it was 14.3 µM; in experiment [6], 2.57 µM; in experiment [7], 33.6 µM. In experiment [8], this molecule registered a TGI of 10.7 µM.
For the molecule `NNC(=S)N/N=C(\c1nc2ccc(Cl)cc2[nH]c1=O)C(O)c1cccc([N+](=O)[O-])c1` (stereo unspecified), the TGI is > 100 µM in experiment [1]; > 100 µM in [2]; > 100 µM in [3]; > 100 µM in [4]; > 100 µM in experiment [5]; > 31.6 µM in [6]. Also, the TGI in experiment [7] and in [8] was > 100 µM each time.
For `O=C1C2C3C=CC(C2C(=O)N1CN1CCOCC1)C1C2C(=O)N(CN4CCOCC4)C(=O)C2C31` (stereo unspecified), the TGI is 36.1 µM in [1]; > 100 µM in experiment [9]; 63.1 µM in experiment [2]; > 73.2 µM in [3]; > 71.5 µM in experiment [4]; > 100 µM in experiment [10]. In addition, the concentration for total growth inhibition (TGI) in [5] was > 65.2 µM; in experiment [6], > 62.8 µM; in experiment [7], > 60.1 µM; in [8], > 55.2 µM.
Regarding `N/N=C1\C(=O)N(c2ccc(Cl)c(Cl)c2)C(=O)C1C(=O)Nc1ccc(Cl)c(Cl)c1` (stereo unspecified), the TGI in [1], in [2], in [3], in [4], in experiment [5] and in experiment [6] was > 100 µM each time. Further, the TGI in experiment [7] and in experiment [8] was > 100 µM in each case.
`CN(C)c1ccc(-c2nc(N)nc3c2CCCC3)cc1`: the TGI in experiment [1] is > 100 µM; in experiment [2], > 100 µM; in experiment [3], > 100 µM; in experiment [5], > 100 µM; in [6] it was > 100 µM; in experiment [8], 98.1 µM.
In the case of `CCOC(=O)C(c1ccsc1)P(=O)(OCC)OCC` (stereo unspecified), the concentration for total growth inhibition (TGI) was found to be 26.7 µM in experiment [1]; 29 µM in experiment [2]; 43.5 µM in experiment [3]; 33.2 µM in [4]; 28.9 µM in experiment [5]; 25.7 µM in [6]. Besides, the TGI in [7] was 37.4 µM; in [8] it was 16.9 µM.
With `O=C1/C(=C/c2ccccc2)CN(C(=O)/C=C/c2ccccc2)C/C1=C\c1ccccc1`, the TGI in experiment [1] was 29.1 µM; in experiment [9], 3.74 µM; in experiment [2], > 46.2 µM; in experiment [3], 60.5 µM; in [4], 37 µM; in experiment [10] it was 10.9 µM. Besides, the TGI in [5] worked out at 30.4 µM; in [6] it was 2.02 µM; in experiment [7], 18.3 µM; in [8] it was 27.7 µM.
Turning to `CC1=C(C(=O)Nc2cc(F)c(F)cc2F)C(c2ccc(N(C)C)cc2)C(C(=O)Nc2cc(F)c(F)cc2F)=C(C)N1`, the total growth inhibition concentration (TGI) was 63 µM in [1]; > 100 µM in experiment [9]; > 100 µM in experiment [2]; 48.1 µM in [3]; > 82.8 µM in experiment [4]; > 100 µM in experiment [10]. In addition, the concentration for total growth inhibition (TGI) is 64.3 µM in experiment [5], > 100 µM in experiment [6], > 100 µM in [7] and 51 µM in [8]. In addition, the GI50 is 41.7 µM in experiment [9], 19 µM in experiment [10], 30.4 µM in experiment [6] and 28.6 µM in experiment [7].
For the molecule `Cc1ccc(C)c(NC(=O)C(=O)C(C2C(C)CC(=O)C2CC(=O)O)[N+](=O)[O-])c1` (stereo unspecified), the TGI in [1], in [2], in experiment [3], in experiment [4], in experiment [5] and in experiment [6] was > 100 µM in each case. In addition, the TGI in experiment [7] is > 100 µM.
For `CC1(C)CCOC(Sc2ccccc2)C1` (stereo unspecified), the total growth inhibition concentration (TGI) in [1], in experiment [2], in [3], in experiment [4], in experiment [5] and in experiment [6] was > 100 µM each time. Moreover, the total growth inhibition concentration (TGI) in [7] and in experiment [8] was > 100 µM throughout.
For the molecule `Nc1ncnc2c1ncn2C1(CO)OC(CO)C(O)C1O` (stereo unspecified), the total growth inhibition concentration (TGI) in [1], in experiment [2], in experiment [3], in experiment [4], in experiment [5] and in [6] was > 100 µM throughout. The TGI in experiment [7] and in experiment [8] was > 100 µM throughout.
Turning to `CCOC(=O)c1ccc(N[C@@H]2c3cc4c(cc3C(c3cc(OC)c(O)c(OC)c3)[C@H]3C(=O)OCC32)OCO4)cc1` (stereo partly specified), the TGI in experiment [1] was 34.7 µM; in experiment [9] it was > 100 µM; in [2], 10.7 µM; in [3] it was 0.909 µM and 4.98 µM; in experiment [4], 25 µM; in [10] it was 4.76 µM. The total growth inhibition concentration (TGI) in experiment [5] turned out to be 5.93 µM; in experiment [6], 10.5 µM; in experiment [7], 6.17 µM; in experiment [8] it was 4.98 µM. Moreover, the concentration for 50% growth inhibition (GI50) in experiment [3] is 308 nM; in [5] it was 426 nM and 1950 nM; in experiment [6] it was 0.835 µM; in experiment [8] it was 395 nM and 1280 nM.
